Source: patent US20040076683A1, “Stealth lipid nanocapsules, methods for the preparation thereof, and use thereof as a carrier for active principle(s)” (ETHYPHARM, priority 2002, published 2004)

Test: Solubility of paclitaxel and docetaxel in triglycerides
Type: physicochemical
Conditions: dissolved at 75 °C, no recrystallization at room temperature
Description: A solution of docetaxel or paclitaxel in triglycerides, which will constitute the inner core of the lipid nanocapsules, is prepared by dissolving the drug into the triglyceride at 75° C. The amount of drug is adjusted in order to obtain solutions that will not recrystallize upon cooling to room temperature.

[1] = in Labrafac CC (C8 content 56.7%)
[2] = in Miglyol 810 N (C8 content 70.4%)

| SMILES | Solubility (% w/w) [1] [% w/w] | Solubility (% w/w) [2] [% w/w] | Solubility (% w/w) (in Tricaprylin (C8 >99%)) |
| --- | --- | --- | --- |
| CC(=O)O[C@@]12CO[C@@H]1C[C@H](O)[C@@]1(C)C(=O)[C@H](O)C3=C(C)[C@@H](OC(=O)[C@H](O)[C@@H](NC(=O)OC(C)(C)C)c4ccccc4)C[C@@](O)([C@@H](OC(=O)c4ccccc4)[C@H]21)C3(C)C [Docetaxel, docetaxel] | 2 | 3.9 | 7 |
| CC(=O)O[C@H]1C(=O)[C@@]2(C)[C@H]([C@H](OC(=O)c3ccccc3)[C@]3(O)C[C@H](OC(=O)[C@H](O)[C@@H](NC(=O)c4ccccc4)c4ccccc4)C(C)=C1C3(C)C)[C@]1(OC(C)=O)CO[C@@H]1C[C@@H]2O [Paclitaxel, paclitaxel] | 1.6 | 2.7 | 6 |
